Assay results published in publication PMC4971072, “Chemically Homogenous Compounds with Antagonistic Properties at All α1-Adrenoceptor Subtypes but not β1-Adrenoceptor Attenuate Adrenaline-Induced Arrhythmia in Rats” (Frontiers in Pharmacology, 2016).
Structures can show the parent of a compound that is named as a salt. Marks after values point to notes of the source that are not given here.

Key:
[1] = tested on: α1-adrenergic receptor subtypes; experiment: Comparison of functional affinities across α1-adrenoceptor subtypes (rat tail artery, mouse spleen, rat aorta); format: biochemical; details: from difference in pA2 values
Protocol: The isolated artery, cut into ~4 mm long rings, was then horizontally put up between two stainless steel hooks (diameter 0.15 mm). One hook was fastened to the bottom of the chamber and the other to an isometric FDT10-A force displacement transducer (DMT Model 750TOBS, Denmark), linked with Powerlab 4/26 analyzer (ADInstruments), and processed by LabChart 7 software. […] The initial optimal tissues tension was set at 0.75 g. Chloroethylclonidine (3 μM) as the preferential α1B-adrenoreceptor alkylating agent was used during incubation and after 30 min it was completely washed off. Through 100 min of equilibration tissues were stimulated with noradrenaline (1 μM) four times with washing out until the contractile response become constant. Two cumulative concentration-response curves to noradrenaline, at an interval of 60 min, were established on each arterial ring both in the presence and absence of antagonist. The incubation with antagonists went on for 30 min. The experiments were carried out in the constant presence of yohimbine (0.1 μM) and propranolol (1 μM) to block α2- and β-adrenoceptors, respectively in order to minimize the involvement of these adrenoceptors in the response to noradrenaline.
The influence on α1B-adrenoceptors was evaluated using the isolated mouse spleen. The spleen was removed from male mice right after killing the anesthetized animal by cervical dislocation. […]

[2] = tested on: adrenaline-induced arrhythmia in rats; experiment: Therapeutic antiarrhythmic activity in adrenaline-induced arrhythmia; format: in vivo, rat; details: i.v. at ED84 at the peak of adrenaline-induced arrhythmia (20 μg/kg)
Protocol: The ECG was recorded constantly for 5 min as well as in the 10th and 15th min of the experiment.

[3] = tested on: blood pressure in normotensive rats; experiment: Influence on blood pressure in normotensive rats; format: in vivo, rat; design: Systolic pressure / Diastolic pressure: unit not given beside the values; details: for Diastolic pressure / Systolic pressure: anesthetized normotensive rats; for Diastolic pressure / Systolic pressure / reduction of diastolic blood pressure / reduction of systolic blood pressure: lowest hypotensive dose i.p.; for lowest hypotensive dose / reduction of diastolic blood pressure / reduction of systolic blood pressure: normotensive rats; for lowest hypotensive dose: lowest dose significantly lowering systolic and diastolic blood pressure; for reduction of diastolic blood pressure / reduction of systolic blood pressure: period of significant effect
Protocol: The tested compounds were administered i.p. after 15 min of stabilization period. The compounds were administered at the dose 10 mg/kg.

[4] = biological target: α1-adrenoceptor; details: rat cerebral cortex, [3H]-prazosin; ref Pytka et al. (2015); read-out: Adrenergic receptors Ki α1; cited from earlier work
[5] = Control (before administration)

Structure (SMILES)	therapeutic antiarrhythmic activity (premature ventricular contractions) [2]	Diastolic pressure ([3]; 5 min)	Systolic pressure ([3]; 5 min)	Diastolic pressure ([3]; 10 min)	Systolic pressure ([3]; 10 min)	Diastolic pressure ([3]; 20 min)	Systolic pressure ([3]; 20 min)	Diastolic pressure ([3]; 30 min)	Systolic pressure ([3]; 30 min)	Diastolic pressure ([3]; 40 min)	Systolic pressure ([3]; 40 min)	Diastolic pressure ([3]; 50 min)	Systolic pressure ([3]; 50 min)	Diastolic pressure ([3]; 60 min)	Systolic pressure ([3]; 60 min)	Diastolic pressure [3, 5]	Systolic pressure [3, 5]	lowest hypotensive dose [3] [mg/kg]	reduction of diastolic blood pressure [3]	reduction of systolic blood pressure [3]	further results
COc1ccccc1N1CCN(CCCOc2cc(C)cc(C)c2C)CC1 [HBK-19, 1N-[3-(2,3,5-trimethylphenoxy)propyl]-4N-(2-methoxyphenyl)piperazine hydrochloride]	restored normal heart rhythm	94.5 ± 2.6	121.0 ± 4.0^b	87.5 ± 0.4^c	116.0 ± 3.5^c	89.0 ± 2.3^b	111.5 ± 3.2^c	87.0 ± 2.9^c	110.0 ± 2.3^c	84.5 ± 1.4^c	107.5 ± 3.2^c	83.5 ± 1.4^c	106.0 ± 3.5^c	84.0 ± 0.6^c	106.0 ± 4.0^c	98.0 ± 4.6	127.0 ± 4.0	0.625	9−15%	5−17%	α1A-adrenoceptor blockade relative to α1B subtype (fold stronger) [1]: around seven-fold
COc1ccccc1N1CCN(CCCOc2c(C)cc(C)cc2C)CC1 [HBK-18, 1N-[3-(2,4,6-trimethylphenoxy)propyl]-4N-(2-methoxyphenyl)piperazine hydrochloride]	restored normal heart rhythm	90.7 ± 7.1	117.7 ± 9.1	85.5 ± 7.5	112.7 ± 7.7	79.5 ± 7.8^a	96.5 ± 8.9^b	78.3 ± 7.2^a	93.8 ± 8.7^c	78.8 ± 7.0^b	91.8 ± 10.0^b	78.7 ± 5.6^c	90.7 ± 8.6^b	77.5 ± 6.0^b	90.2 ± 9.2^a	94.3 ± 6.4	125.7 ± 8.2	0.01	16−18%	23−28%	–
COc1ccccc1N1CCN(CCOCCOc2c(C)cccc2Cl)CC1.Cl [HBK-15, 1-[(2-chloro-6-methylphenoxy)ethoxyethyl]-4-(2-methoxyphenyl)piperazine hydrochloride]	–	96.3 ± 3.7^c	121.2 ± 4.8^c	92.0 ± 4.3^c	116.3 ± 6.0^c	88.5 ± 3.5^c	112.0 ± 5.5^c	88.3 ± 2.9^c	112.2 ± 4.2^c	91.0 ± 3.2^c	112.5 ± 4.4^c	90.2 ± 2.7^c	113.2 ± 3.7^c	93.0 ± 1.2^c	117.3 ± 3.0^c	110.3 ± 2.2	139.0 ± 2.7	5.0	13−20%	13−19%	Ki [4]: 13.1 nM
COc1ccccc1N1CCN(CCOCCOc2c(C)cccc2C)CC1.Cl [HBK-14, 1-[(2,6-dimethylphenoxy)ethoxyethyl]-4-(2-methoxyphenyl)piperazine hydrochloride]	–	105.2 ± 6.1	135.2 ± 7.3	103.0 ± 5.8	131.2 ± 6.8^c	97.3 ± 6.0^c	127.3 ± 6.6^c	95.2 ± 6.1^c	125.3 ± 7.0^c	92.3 ± 6.2^c	124.2 ± 7.0^c	94.0 ± 5.8^c	127.3 ± 6.3^c	98.0 ± 5.1^c	128.2 ± 5.4^c	106.7 ± 4.3	138.3 ± 6.8	0.625	9−14%	5−10%	Ki [4]: 22.8 nM
COc1ccccc1N1CCN(CCCOc2cc(C)ccc2Cl)CC1 [HBK-16, 1N-[3-(2-chloro-5-methylphenoxy)propyl]-4N-(2-methoxyphenyl)piperazine hydrochloride]	restored normal heart rhythm	95.0 ± 5.1	123.2 ± 3.3	93.7 ± 5.1	121.2 ± 3.2	91.3 ± 5.0^b	114.8 ± 2.0^b	89.8 ± 5.2^a	113.0 ± 2.4^c	87.7 ± 4.7^b	110.3 ± 2.1^c	88.0 ± 4.3^c	110.8 ± 2.0^b	87.7 ± 4.6^b	110.7 ± 1.9^c	97.0 ± 4.3	124.7 ± 3.1	0.1	6−10%	8−11%	–
